Experimental data taken from patent US9695155B2, “Herbicidal substituted pyrimidinyloxy benzene compounds” (E. I. DU PONT DE NEMOURS AND COMPANY, priority 2013, dated 2017).

Legend:
deadnettle = experiment: Test D preemergence; format: in vivo, Lamium amplexicaule; details: Lamium amplexicaule, pre-emergence
Description: (§1) Seeds of plant species selected from bluegrass (annual bluegrass, Poa annua), blackgrass (Alopecurus myosuroides), canarygrass (littleseed canarygrass, Phalaris minor), chickweed (common chickweed, Stellaria media), galium (catchweed bedstraw, Galium aparine), bromegrass, downy (downy bromegrass, Bromus tectorum), field poppy (Papaver rhoeas), field violet (Viola arvensis), green foxtail (Setaria viridis), deadnettle (henbit deadnettle, Lamium amplexicaule), Italian ryegrass (Lolium multiflorum), kochia (Kochia scoparia), lambsquarters (Chenopodium album), oilseed rape (Brassica napus), pigweed (Amaranthus retroflexus), chamomile (scentless chamomile, Matricaria inodora), Russian thistle (Salsola kali), speedwell (bird's-eye speedwell, Veronica persica), spring barley (Hordeum vulgare), spring wheat (Triticum aestivum), wild buckwheat (Polygonum convolvulus), wild mustard (Sinapis arvensis), wild oat (Avena fatua), wild radish (Raphanus raphanistrum), windgrass (Apera spica-venti), winter barley (Hordeum vulgare), and winter wheat (Triticum aestivum) were planted into a silt loam soil and treated preemergence with test chemicals formulated in a non-phytotoxic solvent mixture which included a surfactant.
(§2) At the same time, these species were planted in pots containing Redi-Earth® planting medium (Scotts Company, 14111 Scottslawn Road, Marysville, Ohio 43041) comprising spaghnum peat moss, vermiculite, wetting agent and starter nutrients and treated with postemergence applications of the test chemicals formulated in the same manner. Plants ranged in height from 2 to 18 cm (1- to 4-leaf stage). Treated plants and controls were maintained in a controlled growth environment for 7 to 21 days after which time all species were compared to controls and visually evaluated. Plant response ratings, summarized in Table D, are based on a scale of 0 to 100 where 0 is no effect and 100 is complete control. A dash (-) response means no test result.

wild mustard = experiment: Test D postemergence; format: in vivo, Sinapis arvensis; details: Brassica, post-emergence
Procedure, shortened: (§3)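 Plant response is a visual score from 0 (no effect) to 100 (complete control) relative to controls. Plants were kept in a controlled growth environment for 7 to 21 days after spraying. Preemergence treatments went onto silt loam soil; postemergence ones onto 1- to 4-leaf seedlings.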

field violet = experiment: Test D preemergence; format: in vivo, Viola arvensis; details: Viola arvensis, pre-emergence
Description: as §1, §2

windgrass = experiment: Test D preemergence; format: in vivo, Apera spica-venti; details: Apera spica-venti, pre-emergence
Procedure, shortened: as §3

kochia [1] = experiment: Test D postemergence; format: in vivo, Kochia scoparia; details: Bassia scoparia, post-emergence
Procedure, shortened: as §3

oilseed rape = experiment: Test D postemergence; format: in vivo, Brassica napus; details: Brassica napus, post-emergence
Procedure, shortened: as §3

chickweed = experiment: Test D postemergence; format: in vivo, Stellaria media; details: Stellaria media, post-emergence
Description: as §1, §2

kochia [2] = experiment: Test D preemergence; format: in vivo, Kochia scoparia; details: Bassia scoparia, pre-emergence
Procedure, shortened: as §3

Italian ryegrass = experiment: Test D postemergence; format: in vivo, Lolium multiflorum; details: Lolium multiflorum, post-emergence
Description: as §1, §2

field poppy = experiment: Test D preemergence; format: in vivo, Papaver rhoeas; details: Papaver rhoeas, pre-emergence
Procedure, shortened: as §3

Fc1cccc(Oc2ncc(Cl)cn2)c1-n1cc(Br)cn1 [Compound 178, 2-[2-(4-bromo-1H-pyrazol-1-yl)-3-fluorophenoxy]-5-chloropyrimidine]
pest or weed control at 16 g/ha (deadnettle; 16 g ai/ha, scale 0 (no effect) to 100 (complete control), read-out: Plant response rating, Deadnettle): 50%
pest or weed control at 31 g/ha (deadnettle; 31 g ai/ha, scale 0-100, read-out: Plant response rating, Deadnettle): 60%
pest or weed control at 62 g/ha (deadnettle; 62 g ai/ha, scale 0-100, read-out: Plant response rating, Deadnettle): 75%
pest or weed control at 125 g/ha (deadnettle; 125 g ai/ha, scale 0-100, read-out: Plant response rating, Deadnettle): 100%
pest or weed control at 16 g/ha (wild mustard; 16 g ai/ha, scale 0-100, read-out: Plant response rating, Mustard, Wild): 70%
pest or weed control at 31 g/ha (wild mustard; 31 g ai/ha, scale 0 to 100 (0 no effect, 100 complete control), read-out: Plant response rating, Mustard, Wild): 75%
pest or weed control at 62 g/ha (wild mustard; 62 g ai/ha, scale 0 to 100 (0 no effect, 100 complete control), read-out: Plant response rating, Mustard, Wild): 75%
pest or weed control at 125 g/ha (wild mustard; 125 g ai/ha, scale 0 to 100 (0 no effect, 100 complete control), read-out: Plant response rating, Mustard, Wild): 100%
pest or weed control at 16 g/ha (field violet; 16 g ai/ha, scale 0 (no effect) to 100 (complete control), read-out: Plant response rating, Field Violet): 20%
pest or weed control at 62 g/ha (field violet; 62 g ai/ha, scale 0-100, read-out: Plant response rating, Field Violet): 90%
pest or weed control at 125 g/ha (field violet; 125 g ai/ha, scale 0-100, read-out: Plant response rating, Field Violet): 100%
pest or weed control at 16 g/ha (windgrass; 16 g ai/ha, scale 0 (no effect) to 100 (complete control), read-out: Plant response rating, Windgrass): 75%
pest or weed control at 31 g/ha (windgrass; 31 g ai/ha, scale 0 (no effect) to 100 (complete control), read-out: Plant response rating, Windgrass): 75%
pest or weed control at 62 g/ha (windgrass; 62 g ai/ha, scale 0-100, read-out: Plant response rating, Windgrass): 70%
pest or weed control at 125 g/ha (windgrass; 125 g ai/ha, scale 0-100, read-out: Plant response rating, Windgrass): 95%
pest or weed control at 16 g/ha (kochia [1]; 16 g ai/ha, scale 0-100, read-out: Plant response rating, Kochia): 60%
pest or weed control at 31 g/ha (kochia [1]; 31 g ai/ha, scale 0 to 100 (0 no effect, 100 complete control), read-out: Plant response rating, Kochia): 70%
pest or weed control at 62 g/ha (kochia [1]; 62 g ai/ha, scale 0 to 100 (0 no effect, 100 complete control), read-out: Plant response rating, Kochia): 75%
pest or weed control at 125 g/ha (kochia [1]; 125 g ai/ha, scale 0 to 100 (0 no effect, 100 complete control), read-out: Plant response rating, Kochia): 85%
plant injury at 16 g/ha (oilseed rape; 16 g ai/ha, scale 0-100, read-out: Plant response rating, Oilseed Rape): 60%
plant injury at 31 g/ha (oilseed rape; 31 g ai/ha, scale 0 to 100 (0 no effect, 100 complete control), read-out: Plant response rating, Oilseed Rape): 65%
plant injury at 62 g/ha (oilseed rape; 62 g ai/ha, scale 0 to 100 (0 no effect, 100 complete control), read-out: Plant response rating, Oilseed Rape): 80%
plant injury at 125 g/ha (oilseed rape; 125 g ai/ha, scale 0 to 100 (0 no effect, 100 complete control), read-out: Plant response rating, Oilseed Rape): 90%
pest or weed control at 16 g/ha (chickweed; 16 g ai/ha, scale 0-100, read-out: Plant response rating, Chickweed): 55%
pest or weed control at 31 g/ha (chickweed; 31 g ai/ha, scale 0 to 100 (0 no effect, 100 complete control), read-out: Plant response rating, Chickweed): 60%
pest or weed control at 62 g/ha (chickweed; 62 g ai/ha, scale 0 to 100 (0 no effect, 100 complete control), read-out: Plant response rating, Chickweed): 65%
pest or weed control at 125 g/ha (chickweed; 125 g ai/ha, scale 0 to 100 (0 no effect, 100 complete control), read-out: Plant response rating, Chickweed): 75%
pest or weed control at 16 g/ha (kochia [2]; 16 g ai/ha, scale 0 (no effect) to 100 (complete control), read-out: Plant response rating, Kochia): 0%
pest or weed control at 31 g/ha (kochia [2]; 31 g ai/ha, scale 0-100, read-out: Plant response rating, Kochia): 35%
pest or weed control at 62 g/ha (kochia [2]; 62 g ai/ha, scale 0-100, read-out: Plant response rating, Kochia): 85%
pest or weed control at 125 g/ha (kochia [2]; 125 g ai/ha, scale 0-100, read-out: Plant response rating, Kochia): 100%
pest or weed control at 16 g/ha (Italian ryegrass; 16 g ai/ha, scale 0-100, read-out: Plant response rating, Ryegrass, Italian): 0%
pest or weed control at 31 g/ha (Italian ryegrass; 31 g ai/ha, scale 0 to 100 (0 no effect, 100 complete control), read-out: Plant response rating, Ryegrass, Italian): 0%
pest or weed control at 62 g/ha (Italian ryegrass; 62 g ai/ha, scale 0 to 100 (0 no effect, 100 complete control), read-out: Plant response rating, Ryegrass, Italian): 5%
pest or weed control at 125 g/ha (Italian ryegrass; 125 g ai/ha, scale 0 to 100 (0 no effect, 100 complete control), read-out: Plant response rating, Ryegrass, Italian): 15%
pest or weed control at 16 g/ha (field poppy; 16 g ai/ha, scale 0 (no effect) to 100 (complete control), read-out: Plant response rating, Field Poppy): 20%
pest or weed control at 31 g/ha (field poppy; 31 g ai/ha, scale 0-100, read-out: Plant response rating, Field Poppy): 70%
pest or weed control at 62 g/ha (field poppy; 62 g ai/ha, scale 0-100, read-out: Plant response rating, Field Poppy): 85%
pest or weed control at 125 g/ha (field poppy; 125 g ai/ha, scale 0-100, read-out: Plant response rating, Field Poppy): 85%
